Several values for one entry are separate records, joined by “and”; a condition that tells them apart may be missing. Equal values may be shown once. Toxic doses and inconclusive results are not listed.
System: BDF1 mice, P388 leukemia ip, median survival T/C
Assay: NCI In Vivo Anticancer Drug Screen. Data for tumor model P388 Leukemia (intraperitoneal) in B6D2F1 (BDF1) mice
Settings: endpoint: median survival time, higher = longer survival
Summary of the method: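 Steps: implant the tumour, treat one group with compound and another with vehicle, record survival, then divide treated by control.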

[1] = dose: 100.0 mg/kg/injection, schedule: Q01DX009 (ip), vehicle: saline with Tween-80
[2] = dose: 100.0 mg/kg/injection, schedule: Q04DX003 (ip), vehicle: Klucel (hydroxypropylcellulose) (HPC)
[3] = dose: 200.0 mg/kg/injection, schedule: Q01DX009 (ip), vehicle: Klucel (hydroxypropylcellulose) (HPC)
[4] = dose: 200.0 mg/kg/injection, schedule: Q04DX003 (ip), vehicle: Klucel (hydroxypropylcellulose) (HPC)
[5] = dose: 400.0 mg/kg/injection, schedule: Q04DX003 (ip), vehicle: Klucel (hydroxypropylcellulose) (HPC)
[6] = dose: 200.0 mg/kg/injection, schedule: Q01DX009 (ip), vehicle: saline with Tween-80
[7] = dose: 100.0 mg/kg/injection, schedule: Q04DX003 (ip), vehicle: saline with Tween-80
[8] = dose: 200.0 mg/kg/injection, schedule: Q04DX003 (ip), vehicle: saline with Tween-80
[9] = dose: 400.0 mg/kg/injection, schedule: Q04DX003 (ip), vehicle: saline with Tween-80

## CSC(=S)N/N=C(\C)C1CCCC[N-]1.[I][Zn][I] (stereo not drawn)
dose: 12.5 mg/kg/injection, schedule: Q01DX009 (ip), vehicle: saline with Tween-80
  T/C: 109 % of control and 110 % of control and 115 % of control
dose: 25.0 mg/kg/injection, schedule: Q01DX009 (ip), vehicle: saline with Tween-80
  T/C: 109 % of control (2×) and 117 % of control
[1]
  T/C: 118 % of control

## Nc1nc(-c2c[nH]c(=O)[nH]c2=O)cs1
dose: 50.0 mg/kg/injection, schedule: Q01DX009 (ip), vehicle: saline with Tween-80
  T/C: 103 % of control
[1]
  T/C: 98 % of control

## Cc1nc2[nH][nH]c(=O)c2nc1C
dose: 100.0 mg/kg/injection, schedule: Q01DX009 (ip), vehicle: Klucel (hydroxypropylcellulose) (HPC)
  T/C: 100 % of control
[2]
  T/C: 104 % of control
[3]
  T/C: 110 % of control
[4]
  T/C: 92 % of control
[5]
  T/C: 100 % of control

## C=CC(=O)[O][Pb]([CH3])([CH3])[CH3]
dose: 0.75 mg/kg/injection, schedule: Q01DX009 (ip), vehicle: saline
  T/C: 98 % of control
dose: 1.5 mg/kg/injection, schedule: Q01DX009 (ip), vehicle: saline
  T/C: 96 % of control

## COc1ccc(CC2c3cc(OC)c(OC)cc3CCN2C(C)=O)cc1OC (stereo not drawn)
dose: 50.0 mg/kg/injection, schedule: Q01DX005 (ip), vehicle: saline with Tween-80
  T/C: 90 % of control
dose: 200.0 mg/kg/injection, schedule: Q01DX005 (ip), vehicle: saline with Tween-80
  T/C: 88 % of control

## C[N+]12CCCc3cc(CO)cc(c31)CCC2
dose: 12.5 mg/kg/injection, schedule: Q04DX003 (ip), vehicle: Klucel (hydroxypropylcellulose) (HPC)
  T/C: 103 % of control
dose: 25.0 mg/kg/injection, schedule: Q04DX003 (ip), vehicle: Klucel (hydroxypropylcellulose) (HPC)
  T/C: 100 % of control
dose: 50.0 mg/kg/injection, schedule: Q04DX003 (ip), vehicle: Klucel (hydroxypropylcellulose) (HPC)
  T/C: 119 % of control

## N#C/C(C(=N)c1ccccc1)=C1\SS/C(=C(\C#N)C(=N)c2ccccc2)S1
dose: 1.5 mg/kg/injection, schedule: Q01DX009 (ip), vehicle: saline with Tween-80
  T/C: 101 % of control

## NC(N)=NC(N)=Nc1ccc(S(=O)(=O)O)cc1
[1]
  T/C: 103 % of control
[6]
  T/C: 97 % of control
dose: 400.0 mg/kg/injection, schedule: Q01DX009 (ip), vehicle: saline with Tween-80
  T/C: 94 % of control

## CCCCC(=O)NC(=O)c1ccccc1
[1]
  T/C: 104 % of control
[7]
  T/C: 108 % of control
[6]
  T/C: 104 % of control
[8]
  T/C: 104 % of control
[9]
  T/C: 100 % of control

## O=C1c2ccccc2C(=O)c2cc3cc(Cl)ccc3cc21
[2]
  T/C: 90 % of control
[4]
  T/C: 90 % of control
[5]
  T/C: 90 % of control

## NC(=O)C1=NNc2ccccc2C(=O)N1c1ccccc1
[7]
  T/C: 108 % of control
[8]
  T/C: 113 % of control
[9]
  T/C: 103 % of control

## O=C(NC1CCCC2C(NC(=O)c3ccccc3)CCCC12)c1ccccc1 (stereo not drawn)
dose: 66.0 mg/kg/injection, schedule: Q01DX009 (ip), vehicle: saline
  T/C: 120 % of control
dose: 100.0 mg/kg/injection, schedule: Q01DX001 (ip), vehicle: saline
  T/C: 104 % of control
dose: 100.0 mg/kg/injection, schedule: Q01DX009 (ip), vehicle: saline
  T/C: 100 % of control and 109 % of control
dose: 150.0 mg/kg/injection, schedule: Q01DX009 (ip), vehicle: saline
  T/C: 100 % of control and 109 % of control
dose: 200.0 mg/kg/injection, schedule: Q01DX001 (ip), vehicle: saline
  T/C: 95 % of control
dose: 200.0 mg/kg/injection, schedule: Q01DX009 (ip), vehicle: saline
  T/C: 115 % of control
dose: 400.0 mg/kg/injection, schedule: Q01DX001 (ip), vehicle: saline
  T/C: 104 % of control
dose: 400.0 mg/kg/injection, schedule: Q01DX009 (ip), vehicle: saline
  T/C: 100 % of control

## Cc1ccc(NCC2(/N=C/c3ccccc3)OC(CO)C(O)C2O)cc1 (stereo not drawn)
[2]
  T/C: 119 % of control
[3]
  T/C: 150 % of control
[4]
  T/C: 107 % of control
dose: 400.0 mg/kg/injection, schedule: Q01DX009 (ip), vehicle: Klucel (hydroxypropylcellulose) (HPC)
  T/C: 158 % of control
[5]
  T/C: 123 % of control

## O=C(OC12CCCCC1CCCC2)c1ccc([N+](=O)[O-])cc1 (stereo not drawn)
[7]
  T/C: 110 % of control
[8]
  T/C: 100 % of control
[9]
  T/C: 100 % of control

Reference: PubChem BioAssay AID328 (DTP/NCI, 2004)
